From the NIST ThermoML archive (doi:10.1016/j.jct.2012.02.007)

How the values were obtained:
[1] = mn = molality of the nth substance listed, in mol/kg; settings: 101.3 kPa, Liquid; for speed of sound: Sing-around technique in a fixed-path interferometer; for mass density: Vibrating tube method
[2] = osmotic coefficient (dimensionless); mn = molality of the nth substance listed, in mol/kg; settings: 323.15 K, Liquid, Vapor Pressure Osmometer

CCCCn1cc[n+](C)c1.N#CN=C=[N-] [1-butyl-3-methylimidazolium dicyanamide] + CCCCCO
[1]
Settings | mass density, 293.15 K [kg/m3] | mass density, 308.15 K [kg/m3] | mass density, 323.15 K [kg/m3] | speed of sound, 293.15 K [m/s] | speed of sound, 308.15 K [m/s] | speed of sound, 323.15 K [m/s]
m1 = 0.0499 | 816.84 | 805.86 | 794.56 | 1296.1 | 1246.2 | 1196.7
m1 = 0.1005 | 818.99 | 808.05 | 796.79 | 1299.3 | 1249.5 | 1200.3
m1 = 0.1579 | 821.34 | 810.43 | 799.21 | 1302.8 | 1253.2 | 1204.2
m1 = 0.2012 | 823.14 | 812.25 | 801.07 | 1305.5 | 1256 | 1207.2
m1 = 0.2575 | 825.39 | 814.53 | 803.38 | 1308.7 | 1259.4 | 1210.8
m1 = 0.5093 | 834.72 | 823.96 | 812.96 | 1322.3 | 1273.7 | 1225.8
m1 = 0.7636 | 843.46 | 832.73 | 821.84 | 1334.4 | 1286.4 | 1238.6
m1 = 1.022 | 851.58 | 840.96 | 830.18 | 1346.7 | 1299.3 | 1252.8
m1 = 1.271 | 858.96 | 848.35 | 837.65 | 1357 | 1310.2 | 1263.7
m1 = 1.52 | 865.82 | 855.32 | 844.69 | 1367.7 | 1321.4 | 1275.9
m1 = 1.766 | 872.07 | 861.65 | 851.09 | 1377 | 1331.2 | 1286.1
m1 = 1.982 | 877.32 | 866.91 | 856.41 | 1385 | 1339.5 | 1294.8
m1 = 2.527 | 889.3 | 878.99 | 868.61 | 1403.6 | 1358.9 | 1315.1
m1 = 2.998 | 898.47 | 888.26 | 877.98 | 1418.4 | 1374.3 | 1331.1
m1 = 3.512 | 907.39 | 897.32 | 887.14 | 1432.6 | 1389.6 | 1347

[2]
Settings | osmotic coefficient
m1 = 0.0625 | 0.784
m1 = 0.0829 | 0.719
m1 = 0.1019 | 0.669
m1 = 0.2131 | 0.627
m1 = 0.3093 | 0.596
m1 = 0.4113 | 0.582
m1 = 0.5349 | 0.566
m1 = 0.8273 | 0.537
m1 = 1.131 | 0.52
m1 = 1.443 | 0.509
m1 = 1.749 | 0.502
m1 = 2.246 | 0.493
m1 = 2.756 | 0.478
m1 = 3.23 | 0.458

CCCCn1cc[n+](C)c1.N#CN=C=[N-] [1-butyl-3-methylimidazolium dicyanamide] + CCCCO
[1]
Settings | mass density, 293.15 K [kg/m3] | mass density, 308.15 K [kg/m3] | mass density, 323.15 K [kg/m3] | speed of sound, 293.15 K [m/s] | speed of sound, 308.15 K [m/s] | speed of sound, 323.15 K [m/s]
m1 = 0.0564 | 812.2 | 800.77 | 788.99 | 1261.4 | 1211.3 | 1161.9
m1 = 0.1049 | 814.3 | 802.91 | 791.18 | 1264.8 | 1214.9 | 1165.8
m1 = 0.156 | 816.47 | 805.11 | 793.43 | 1268.3 | 1218.6 | 1169.6
m1 = 0.204 | 818.49 | 807.15 | 795.51 | 1271.7 | 1222 | 1173.1
m1 = 0.2581 | 820.7 | 809.41 | 797.8 | 1275.2 | 1225.8 | 1177.1
m1 = 0.5068 | 830.31 | 819.12 | 807.68 | 1290.3 | 1241.6 | 1193.7
m1 = 0.7637 | 839.41 | 828.32 | 817.01 | 1304.9 | 1256.7 | 1209.3
m1 = 1.006 | 847.36 | 836.34 | 825.14 | 1317.6 | 1270 | 1223.2
m1 = 1.271 | 855.38 | 844.45 | 833.35 | 1330.6 | 1283.5 | 1237.4
m1 = 1.516 | 862.28 | 851.41 | 840.4 | 1341.9 | 1295.3 | 1249.7
m1 = 1.766 | 868.85 | 858.05 | 847.12 | 1352.9 | 1306.7 | 1261.6
m1 = 2.004 | 874.76 | 864.01 | 853.15 | 1362.9 | 1317.1 | 1272.3
m1 = 2.509 | 886.17 | 875.53 | 864.81 | 1382.3 | 1337.5 | 1293.4
m1 = 2.993 | 895.87 | 885.33 | 874.72 | 1399.5 | 1355.1 | 1311.7
m1 = 3.535 | 905.44 | 895.01 | 884.51 | 1416.7 | 1373 | 1330.2

[2]
Settings | osmotic coefficient
m1 = 0.0803 | 0.739
m1 = 0.1014 | 0.707
m1 = 0.2018 | 0.653
m1 = 0.31 | 0.625
m1 = 0.4166 | 0.604
m1 = 0.5175 | 0.594
m1 = 0.8182 | 0.585
m1 = 1.221 | 0.564
m1 = 1.633 | 0.551
m1 = 2.026 | 0.536
m1 = 2.413 | 0.528
m1 = 2.82 | 0.522
m1 = 3.306 | 0.508
